According to the supplement of paper PMC10307832:

Key:
Assay in all cases: relative viability (nuclei count vs DMSO), 5 days (fraction); higher = more cells survive
IU1-47 + Phenformin = compound: CC1=CC(=C(N1C2=CC=C(C=C2)Cl)C)C(=O)CN3CCCCC3 [IU1-47] + N=C(N)NC(=N)NCCc1ccccc1 [Phenformin] (partner 250 µM)
Outline: (§1)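 Relative viability is defined as nuclei in treated wells over nuclei in vehicle wells. Duplicate plates were run and medians reported. Lung cancer cell lines in 1536-well plates were dosed by pin tool one day after seeding, with one drug or with a fixed anchor-drug dose plus five library-drug doses (not always all listed) in √10 steps, and nuclei were counted after 5 days.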

IU1-47 + OSI-027 = compound: CC1=CC(=C(N1C2=CC=C(C=C2)Cl)C)C(=O)CN3CCCCC3 [IU1-47] + COc1cccc2cc(-c3nc([C@H]4CC[C@H](C(=O)O)CC4)n4ncnc(N)c34)[nH]c12 [OSI-027] (partner 0.5 µM)
Outline: as §1

IU1-47 + Linsitinib = compound: CC1=CC(=C(N1C2=CC=C(C=C2)Cl)C)C(=O)CN3CCCCC3 [IU1-47] + C[C@]1(O)C[C@@H](c2nc(-c3ccc4ccc(-c5ccccc5)nc4c3)c3c(N)nccn32)C1 [Linsitinib] (partner 1 µM)
Outline: as §1

FG-4592 + Luminespib = compound: Cc1nc(C(=O)NCC(=O)O)c(O)c2ccc(Oc3ccccc3)cc12 [FG-4592] + CCNC(=O)c1noc(-c2cc(C(C)C)c(O)cc2O)c1-c1ccc(CN2CCOCC2)cc1 [Luminespib] (partner 0.01 µM)
Outline: as §1

| Cell Line | relative viability (IU1-47 + Phenformin; first compound 0.08 µM) | relative viability (IU1-47 + Phenformin; first compound 0.253 µM) | relative viability (IU1-47 + Phenformin; first compound 0.8 µM) | relative viability (IU1-47 + Phenformin; first compound 2.53 µM) | relative viability (IU1-47 + Phenformin; first compound 8 µM) | relative viability (IU1-47 + OSI-027; first compound 0.08 µM) | relative viability (IU1-47 + OSI-027; first compound 0.253 µM) | relative viability (IU1-47 + OSI-027; first compound 0.8 µM) | relative viability (IU1-47 + OSI-027; first compound 2.53 µM) | relative viability (IU1-47 + OSI-027; first compound 8 µM) | relative viability (IU1-47 + Linsitinib; first compound 0.08 µM) | relative viability (IU1-47 + Linsitinib; first compound 0.253 µM) | relative viability (IU1-47 + Linsitinib; first compound 0.8 µM) | relative viability (IU1-47 + Linsitinib; first compound 2.53 µM) | relative viability (IU1-47 + Linsitinib; first compound 8 µM) | relative viability (FG-4592 + Luminespib; first compound 0.08 µM) | relative viability (FG-4592 + Luminespib; first compound 0.253 µM) | relative viability (FG-4592 + Luminespib; first compound 2.53 µM) | relative viability (FG-4592 + Luminespib; first compound 8 µM) | relative viability (FG-4592 + Luminespib; first compound 0.8 µM) |
| --- | --- | --- | --- | --- | --- | --- | --- | --- | --- | --- | --- | --- | --- | --- | --- | --- | --- | --- | --- | --- |
| HCC-44 | 0.167 | 0.183 | 0.143 | 0.221 | 0.183 | 0.403 | 0.483 | 0.593 | 0.434 | 0.389 | 0.668 | 0.662 | 0.649 | 0.664 | 0.572 | 1.05 | 1.01 | 0.934 | 1.05 |  |
| HCC-827 | 0.44 | 0.425 | 0.416 | 0.464 | 0.37 | 0.944 | 0.895 | 0.85 | 0.889 | 0.543 | 0.99 | 0.92 | 0.941 | 1.01 | 0.963 | 0.643 | 0.587 | 0.657 | 0.591 | 0.702 |
| NCI-H1623 | 0.634 | 0.61 | 0.642 | 0.576 | 0.551 | 0.452 | 0.451 | 0.449 | 0.434 | 0.391 |  |  |  |  |  | 0.466 | 0.547 | 0.492 | 0.415 | 0.409 |
| NCI-H2347 | 0.387 | 0.413 | 0.336 | 0.496 | 0.345 | 0.318 | 0.456 | 0.43 | 0.398 | 0.375 | 1.06 | 0.997 | 0.973 | 0.946 | 0.954 | 0.4 |  | 0.323 | 0.293 | 0.258 |
| PC-14 | 0.686 | 0.611 | 0.633 | 0.664 | 0.406 | 0.881 | 0.925 | 1.11 | 0.302 | 0.847 | 1.02 | 1.04 | 1.01 | 1.05 | 0.94 | 0.136 | 0.177 | 0.197 | 0.16 | 0.143 |
| NCI-H1651 | 0.342 | 0.308 | 0.373 | 0.319 | 0.297 | 0.651 | 0.717 | 0.726 | 0.671 | 0.622 | 1.22 | 1.14 | 1 |  | 0.771 | 0.9 | 0.767 | 0.836 | 0.867 | 0.789 |
| HARA | 0.594 | 0.478 | 0.567 |  | 0.537 | 0.554 | 0.406 | 0.456 |  | 0.413 | 1.19 | 1.13 | 1.08 | 0.931 | 0.678 | 0.73 | 0.787 | 0.621 | 0.709 | 0.834 |
| NCI-H1650 | 0.412 | 0.367 | 0.419 | 0.366 | 0.326 | 0.502 | 0.438 | 0.645 | 0.521 | 0.412 |  |  |  |  |  | 0.206 | 0.208 | 0.197 | 0.209 | 0.219 |
| NCI-H1395 | 0.408 | 0.456 | 0.472 | 0.436 | 0.374 | 0.58 | 0.621 | 0.665 | 0.387 | 0.554 | 1.04 | 1.07 | 0.978 |  | 0.987 | 0.34 | 0.685 | 0.61 | 0.753 | 0.583 |
| LU99A | 0.846 | 0.838 | 0.856 | 0.813 | 0.904 | 0.246 | 0.303 | 0.337 | 0.298 | 0.317 | 0.538 | 0.511 | 0.656 | 0.602 | 0.54 | 0.287 | 0.254 | 0.234 | 0.279 | 0.294 |
| NCI-H1355 | 0.432 | 0.501 | 0.441 |  | 0.398 | 0.396 | 0.427 | 0.402 |  | 0.395 | 0.873 | 0.844 | 0.933 | 0.74 | 0.686 | 0.808 | 0.67 | 0.681 | 0.676 | 0.465 |
| HCC-78 | 0.679 | 0.691 | 0.671 | 0.671 | 0.617 | 0.38 | 0.354 | 0.337 | 0.42 | 0.353 | 0.555 | 0.506 | 0.521 | 0.474 | 0.417 |  |  |  |  |  |
| NCI-H1563 | 0.657 | 0.691 | 0.629 | 0.709 | 0.584 | 0.809 | 0.782 | 0.785 | 0.757 | 0.663 | 1.22 | 1.05 | 1.19 | 1.07 | 1.14 | 0.552 | 0.528 | 0.534 | 0.535 | 0.537 |
| HCC-15 | 0.482 | 0.497 | 0.557 | 0.491 | 0.432 | 0.709 | 0.722 | 0.685 | 0.388 | 0.616 | 0.931 | 0.967 | 0.9 | 0.917 | 0.801 | 0.403 | 0.371 | 0.302 | 0.253 | 0.26 |
